“Also recorded” adds a separate entry of the source.
Columns and labels:
[1] = cited from earlier work
70 kDa PKC-λ/ι = target: T1, 70 kDa PKC-λ/ι (Mus musculus, UniProt Q62074); assay: brain aPKC (PKC-λ/ι) phosphorylation/activity in mice; type: in vivo
T1 construct: insulin-sensitive 70 kDa PKC-λ/ι in brains of Het-MλKO mice; from tissue; host or cells: mouse brain homogenate
T1 sequence (Q62074 1-595): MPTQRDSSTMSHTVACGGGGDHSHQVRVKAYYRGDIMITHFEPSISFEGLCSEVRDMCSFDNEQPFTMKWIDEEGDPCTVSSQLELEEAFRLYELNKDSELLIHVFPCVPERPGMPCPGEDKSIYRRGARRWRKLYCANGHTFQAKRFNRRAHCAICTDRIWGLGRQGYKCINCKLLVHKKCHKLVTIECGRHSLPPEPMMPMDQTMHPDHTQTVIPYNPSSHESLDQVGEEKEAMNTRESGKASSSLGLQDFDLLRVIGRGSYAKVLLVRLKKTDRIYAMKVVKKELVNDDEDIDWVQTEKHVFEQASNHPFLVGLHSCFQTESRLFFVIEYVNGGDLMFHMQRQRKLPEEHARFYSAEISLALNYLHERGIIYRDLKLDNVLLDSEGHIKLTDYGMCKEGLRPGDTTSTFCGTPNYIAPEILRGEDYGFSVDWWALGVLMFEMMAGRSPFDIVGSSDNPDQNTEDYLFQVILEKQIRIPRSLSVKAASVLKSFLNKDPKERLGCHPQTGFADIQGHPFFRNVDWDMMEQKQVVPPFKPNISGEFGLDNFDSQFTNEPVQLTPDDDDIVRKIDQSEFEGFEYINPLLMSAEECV
Source text: (§1) Mouse Studies. Brain samples were obtained from normal and insulin-resistant mice and monkeys used previously, and includes mice originally used in studies of insulin signaling and resistance in liver: (a) 4-6 month old C57Bl/6 mice used in studies of high-fat-feeding [USF Vivarium] [6]; 4-6 month-old male C57Bl/6 ob/ob and lean ob+ mice (Jackson Labs, Bar Harbor, Maine); and (c) 10-12 month-old C57Bl/6 Het-MλKO mice [USF Vivarium] [8]. […] Where indicated normal mice were given a single SC injection of saline or saline containing 1.5 mg/kg ICAPP to follow time-related alterations in brain signaling factors. Where indicated, mice were treated intraperitoneally (IP) with insulin (1 U/kg body weight) or vehicle 15-min before euthanization by administration of Xylazine/Ketamine, followed by whole body perfusion with phosphate-buffered saline and rapid removal of brain and other tissues.
(§2) Tissue Preparations. As described, mouse brains were hemisected sagittally, and one-half was frozen in liquid N2, stored at −80° C., and samples thereof were homogenized in buffer containing 0.25M sucrose, 20 mM Tris/HCl (pH, 7.5), 2 mmol/l EGTA, 2 mM EDTA, 1 mM phenlysulfonoylfluoride (PMSF), 20 μg/ml leupeptin, 10 μg/ml aprotinin, 2 mM Na4P2O7, 2 mM Na3VO4, 2 mM NaF, and 1 μM microcystin, and then supplemented with 1% TritonX-100, 0.6% Nonidet and 150 mM NaCl.
(§3) Western Analyses. As described, Western analyses were conducted with rabbit antisera or mouse monoclonal antibodies (mMab), using: anti-aPKC (Santa Cruz Biotechnologies, Santa Cruz, CA); anti-phospho-threonine-560/555-PKC-ζ/λ/ι (Invitrogen, Carlsbad, CA); anti-p-serine-256-FoxO1 and anti-FoxO1 (Abnova, Walnut, CA); anti-Akt (mMab), anti-phospho-serine-473-Akt, anti-phospho-serine-9-GSK3P anti-GSK313, anti-phospho-serine-253-FoxO3a, anti-FoxO3a, anti-phospho-serine-256-FoxO1, anti-phospho-serine-193-FoxO4; anti-FoxO1, anti-phospho-serine-2448-mTOR, anti-mTOR, anti-β-amyloid (anti-5-10 kDa-Aβ1-40/42) and anti-amyloid precursor protein (anti-120 kDa-APP) (Cell Signaling Technologies, Danvers, MA); and anti-phospho-serine-202-tau, anti-phospho-threonine-231-tau (Gene Tex, Irvine, CA). Samples from experimental groups were compared on the same blots, and routinely checked with loading controls. Note that: insulin-sensitive 70 kDa aPKC is largely PKC-ζ in mouse brain and orthologous PKC-ι (98% aa homology) in monkey and other primate brains; brain PKC-ζ exists largely as a 50 kDa moiety that, lacking a regulatory domain, is constitutively-active and unresponsive to insulin.
(§4) Where indicated, mice were randomly treated with insulin (1 unit/kg/bw i.p.) 15 min before being euthanized by administration of xylazine/ketamine, followed by whole-body perfusion with PBS and rapid removal of brain and other tissues.

Akt [2] = assay: Akt activity in human hepatocytes; type: cell-based; conditions: normal human hepatocytes, 100 μM metformin, preliminary studies
Source text: (§5) Relative values. Mean±SEM (N=4-8). Asterisks: *, P<0.05; **, P<0.01; ***, P<0.001.

aPKC [3] = assay: aPKC activity in LA1-5s neuroblastoma cells; type: cell-based, human
phospho-thr-231-tau = phospho-thr-231-tau levels in LA1-5s neuroblastoma cells; type: cell-based, human; conditions: LA1-5s cells, metformin alone
Procedure: (§6) Shown here are Mean±SEM (N=4) values relative to the mean initial basal or insulin-stimulated level of indicated immunoreactive protein/peptide. Asterisks: *, P<0.05; **, P<0.01; ***, P<0.001 (ANOVA).
as §3

aPKC [4] = assay: aPKC activity in human hepatocytes; type: cell-based; conditions: normal human hepatocytes, 100 μM metformin, preliminary studies
Source text: as §5

β-secretase (BACE1) [5] = assay: β-secretase activity (BACE1) in LA1-5s neuroblastoma cells; type: cell-based, human; conditions: LA1-5s cells
Procedure: (§7) Relative bar values in panel a are mean±SEM of 6 determinations. Asterisks: *, P<0.05; **, P<0.01; ***, P<0.001 (ANOVA). Values in panel b are means of 2-4 determinations.
as §6
(§8) β-Secretase Activity (BACE1; beta-site APP-cleaving enzyme-1). β-Secretase was measured was measured using a kit from Thermo-Fisher.

Aβ1-40/42 [6] = assay: Aβ1-40/42 levels in LA1-5s neuroblastoma cells; type: cell-based, human; conditions: for effect on levels of Aβ1-40/42: LA1-5s cells
Procedure: as §7, §6, §3

[7] = tested on: SREBP-1c, FAS, ACC, PEPCK, G6Pase, and PGC-1α; assay: expression of lipogenic and gluconeogenic enzymes in human hepatocytes; type: cell-based
Source text: Relative values are Mean±SEM (N=4-8). Asterisks: *, P<0.05; **, P<0.01; ***, P<0.001. ANOVA.

β-secretase (BACE1) [8] = assay: brain β-secretase activity (BACE1) in mice; type: in vivo, mouse; conditions: normal WT mice, insulin 1 U/kg i.p. 15 min
Source text: Mouse Studies. Brain samples were obtained from normal and insulin-resistant mice and monkeys used previously, and includes mice originally used in studies of insulin signaling and resistance in liver: (a) 4-6 month old C57Bl/6 mice used in studies of high-fat-feeding [USF Vivarium] [6]; 4-6 month-old male C57Bl/6 ob/ob and lean ob+ mice (Jackson Labs, Bar Harbor, Maine); and (c) 10-12 month-old C57Bl/6 Het-MλKO mice [USF Vivarium] [8]. Males and females were comparably present in experimental groups, and sex didn't appreciably alter combined findings. Hepatic alterations, clinical characteristics and ameliorating effects of liver-selective aPKC inhibitors were reported previously. […] Where indicated, Het-MλKO were injected subcutaneously (SC) once daily for 8 days with saline or 1H-imidazole-4-carboxamide,5-amino]-(2,3-dihydroxy-4-[(phosphono-oxy)methyl]cyclopentane-[1R-(1a,2b,3b,4a)] (ICAPP) 0.4 mg/kg body weight) in saline, to inhibit hepatic aPKC, and thus diminish aPKC-dependent expression of hepatic gluconeogenic and lipogenic enzymes, and thereby reduce serum insulin levels to near-normal. Where indicated normal mice were given a single SC injection of saline or saline containing 1.5 mg/kg ICAPP to follow time-related alterations in brain signaling factors. Where indicated, mice were treated intraperitoneally (IP) with insulin (1 U/kg body weight) or vehicle 15-min before euthanization by administration of Xylazine/Ketamine, followed by whole body perfusion with phosphate-buffered saline and rapid removal of brain and other tissues.
as §2, §8

[9] = tested on: Akt substrates, GSK3β and mTOR; assay: phosphorylation of Akt substrates in LA1-5s neuroblastoma cells; type: cell-based, human; conditions: 200 nM insulin
Procedure: as §7, §3

Aβ1-40/42 [10] = assay: brain Aβ1-40/42 peptide levels in mice; type: in vivo, mouse; conditions: control mice, insulin 1 unit/kg i.p. 15 min
Source text: as §1, §2, §3, §4

Akt [11] = assay: Akt activity in LA1-5s neuroblastoma cells; type: cell-based, human; conditions: 200 nM insulin
Procedure: as §7, §6, §3

Akt [12] = assay: brain Akt phosphorylation/activity in mice; type: in vivo, mouse; conditions: control mice, insulin 1 unit/kg i.p. 15 min
Source text: as §1, §2, §3, §4

[13] = neuroblastoma cells, 200 nM insulin, 1 hour

Question: With `O=C(O)CC([S-])C(=O)O.[Au+]` (stereo not drawn) [ATM, aurothiomalate] as the molecule, how does the “serum insulin levels / hyperinsulinemia” value ([1]; Het-MλKO mice, reported previously) read?
Answer: Its value is “fully/sufficiently improved; also recorded: reduced serum insulin levels to normal”.

Question: Which results are given for `NC(=O)c1ncn([C@@H]2C[C@H](CO)[C@@H](O)[C@H]2O)c1N` [ICAP, reference compound]?
Answer: acute effects of insulin on CNS aPKC activity (70 kDa PKC-λ/ι; normal mice, doses employed in the initial studies): unable to diminish acute effects of insulin on CNS aPKC activity; hyperinsulinemia, with regard to hyperactivation of CNS Akt and aPKC ([1]; HFF and ob/ob mice, doses effective on hepatic aPKC, initial studies): did not improve hyperinsulinemia sufficiently

Question: Which “Akt activation and action” value (Akt [2]) does the source give for `CN(C)C(=N)N=C(N)N` [metformin] here?
Answer: The value was “impairments in Akt activation and action”.

Question: What about the “effect on aPKC activity” value (aPKC [3]; LA1-5s cells, metformin alone) of the same molecule?
Answer: Its value is “increase”.

Question: And the “effect on levels of phospho-thr-231-tau” value (phospho-thr-231-tau)?
Answer: The value was “increase”.

Question: And the aPKC activity (aPKC [4])?
Answer: Its aPKC activity is “increases in aPKC activity”.

Question: And the “effect on β-secretase activity” value (β-secretase (BACE1) [5]; metformin alone)?
Answer: Its value is “increase”.

Question: And the “effect on levels of Aβ1-40/42” value (Aβ1-40/42 [6]; metformin alone)?
Answer: Its value is “increase”.

Question: What about the “SREBP-1c activity and expression of lipogenic enzymes” value ([7]; hepatocytes, metformin) of the same molecule?
Answer: Its value is “increases in activity of SREBP-1c and SREBP-1c-dependent expression of lipogenic enzymes”.

Question: What about the gluconeogenic enzyme expression ([7]; normal human hepatocytes, 100 μM metformin, preliminary studies) of the same molecule?
Answer: Its gluconeogenic enzyme expression is “increases in gluconeogenic enzyme expression”.

Question: Which “brain aPKC activity” value (70 kDa PKC-λ/ι; control mice, insulin 1 unit/kg i.p. 15 min) does the source give for insulin here?
Answer: The value was “provoked increases”.

Question: What about the “brain β-secretase activity (BACE1)” value (β-secretase (BACE1) [8]) of the same molecule?
Answer: Its value is “accompanied by increases”.

Question: And the “effect on aPKC activity” value (aPKC [3]; LA1-5s cells, 200 nM insulin, 24 hours)?
Answer: Its value is “elicited increases”.

Question: And the “effect on aPKC activity” value (aPKC [3]; [13])?
Answer: The value was “can increase”.

Question: And the “effect on phosphorylation of Akt substrates, GSK3β and mTOR” value ([9]; LA1-5s cells, 24 hours)?
Answer: Its value is “elicited increases”.

Question: What about the “effect on Akt-dependent GSK3β and mTOR phosphorylation” value ([9]; neuroblastoma cells, 1 hour) of the same molecule?
Answer: Its value is “can increase”.

Question: And the “brain Aβ1-40/42 peptide levels” value (Aβ1-40/42 [10])?
Answer: The value was “increased”.

Question: What about the “effect on Akt activity” value (Akt [11]; LA1-5s cells, 24 hours) of the same molecule?
Answer: The value was “elicited increases”.

Question: What about the “effect on Akt activity” value (Akt [11]; neuroblastoma cells, 1 hour) of the same molecule?
Answer: The value was “can increase”.

Question: What about the “effect on activity of β-secretase” value (β-secretase (BACE1) [5]; 200 nM insulin, 24 hours) of the same molecule?
Answer: Its value is “elicited increases”.

Question: What about the “effect on levels of Aβ1-40/42” value (Aβ1-40/42 [6]; 200 nM insulin, 24 hours) of the same molecule?
Answer: The value was “elicited increases”.

Question: And the “effect on Aβ1-40/42 peptide levels” value (Aβ1-40/42 [6]; [13])?
Answer: The value was “can increase”.

Question: And the “brain Akt activity” value (Akt [12])?
Answer: The value was “provoked increases”.
